Measurements from ChEMBL document CHEMBL4765281, “Development of a novel nitric oxide (NO) production inhibitor with potential therapeutic effect on chronic inflammation” (Eur J Med Chem, 2020).
One block for each compound: values may come before it. Activity calls are given as the source filed them. The rule behind the calls is not given here.

Experiments:
RAW264.7 [1] = experiment: Inhibition of LPS-induced nitric oxide production in mouse RAW264.7 cells at 10 uM measured after 24 hrs by Griess reagent based assay relative to control; format: functional
RAW264.7 [2] = experiment: Inhibition of LPS-induced nitric oxide production in mouse RAW264.7 cells; format: functional, cell-based
Mus musculus [3] = experiment: Antiinflammatory activity in DBA/1 mouse model of collagen-induced arthritis assessed as reduction in paw redness at 10 mg/kg/day, po administered starting from day 30; format: functional, organism-based
Rattus norvegicus [4] = experiment: Antiinflammatory activity in Lewis rat model of adjuvant-induced arthritis assessed as reduction in disease symptom at 10 mg/kg/day, po administered starting from day 14; format: functional, organism-based
Mus musculus [5] = experiment: (§1) Antiinflammatory activity in DBA/1 mouse model of collagen-induced arthritis assessed as CD4-positive cell expression in lymph node derived lymphocytes at 10 mg/kg/day, po administered starting from day 30 and measured on day 63 by APC-conjugated anti-mouse CD4 and FITC-conjugated anti-mouse CD8 staining based flow cytometry relative to control; format: functional; settings: time 33 day
RAW264.7 [6] = experiment: Cytotoxicity against mouse RAW264.7 cells assessed as reduction in cell viability measured after 24 hrs by MTT assay; format: cell-based; settings: RAW264.7, 24 h
Mus musculus [7] = experiment: Antiinflammatory activity in DBA/1 mouse model of collagen-induced arthritis assessed as reduction in cartilage destruction at 10 mg/kg/day, po administered starting from day 30 and measured on day 63 by H and E/Safranin O staining based microscopic analysis; format: functional, organism-based; settings: time 33.0 day
Mus musculus [8] = experiment: as §1, with “CD4 and CD8-double positive” for “CD4-positive”; format: functional; settings: time 33 day
RAW264.7 [9] = experiment: Inhibition of LPS-induced iNOS expression in mouse RAW264.7 cells measured after 24 hrs by Western blot analysis; format: functional, cell-based
Mus musculus [10] = experiment: Antiinflammatory activity in DBA/1 mouse model of collagen-induced arthritis assessed as reduction in TNFalpha mRNA expression in joint tissue at 10 mg/kg/day, po administered starting from day 30 and measured on day 63 by RT-PCR analysis; format: functional, organism-based; settings: time 33.0 day
Mus musculus [11] = experiment: Antiinflammatory activity in DBA/1 mouse model of collagen-induced arthritis assessed as reduction in IL-1beta mRNA expression in joint tissue at 10 mg/kg/day, po administered starting from day 30 and measured on day 63 by RT-PCR analysis; format: functional, organism-based; settings: time 33.0 day
Mus musculus [12] = experiment: Antiinflammatory activity in DBA/1 mouse model of collagen-induced arthritis assessed as reduction in arthritis score at 10 mg/kg/day, po administered starting from day 30; format: functional, organism-based
Rattus norvegicus [13] = experiment: Antiinflammatory activity in Lewis rat model of adjuvant-induced arthritis assessed as reduction in arthritis score at 10 mg/kg/day, po administered starting from day 14; format: functional, organism-based
Mus musculus [14] = experiment: Antiinflammatory activity in DBA/1 mouse model of collagen-induced arthritis assessed as appearance of intact joint structure at 10 mg/kg/day, po administered starting from day 30 and measured on day 63 by H and E/Safranin O staining based microscopic analysis; format: functional, organism-based; settings: time 33.0 day
Mus musculus [15] = experiment: as §1, with “spleen” for “lymph node derived”; format: functional; settings: time 33 day
RAW264.7 [16] = experiment: Inhibition of LPS-induced nitric oxide production in mouse RAW264.7 cells measured after 24 hrs by Griess reagent based assay; format: functional, cell-based; settings: RAW264.7, 24 h
Mus musculus [17] = experiment: as §1, with “CD8-positive” for “CD4-positive”; format: functional; settings: time 33 day
Rattus norvegicus [18] = experiment: Antiinflammatory activity in Lewis rat model of adjuvant-induced arthritis assessed as improvement in disease pathology at 10 mg/kg/day, po administered starting from day 14 and measured on day 28 by H and E/Safranin O staining based microscopic analysis; format: functional, organism-based; settings: time 14.0 day
Mus musculus [19] = experiment: as §1, with “CD8-positive” for “CD4-positive”, “spleen” for “lymph node derived”; format: functional; settings: time 33 day
Mus musculus [20] = experiment: as §1, with “CD4 and CD8- double positive” for “CD4-positive”, “spleen” for “lymph node derived”; format: functional; settings: time 33 day
Mus musculus [21] = experiment: Antiinflammatory activity in DBA/1 mouse model of collagen-induced arthritis assessed as reduction in IL-6 mRNA expression in joint tissue at 10 mg/kg/day, po administered starting from day 30 and measured on day 63 by RT-PCR analysis; format: functional, organism-based; settings: time 33.0 day

Structure (SMILES): COc1ccc(/C=C/C(=O)c2ccccc2O)cc1
inhibition at 10 µM (RAW264.7 [1]): 76.7%

IC50 (RAW264.7 [2]): 1.6 µM
Structure (SMILES): CC(C)=CCc1c(O)ccc(C(=O)/C=C/c2ccc(O)cc2)c1O [ISOBAVACHALCONE]

Structure (SMILES): COc1cccc(/C=C(\F)C(=O)c2c(O)cc(OC)cc2OC)c1
inhibition at 10 µM (RAW264.7 [1]): 58.1%

IC50 (RAW264.7 [16]): 6400 nM
Structure (SMILES): COc1cc(O)c(C(=O)/C=C/c2ccc(OCCCN3CCOCC3)c(OC)c2)c(OC)c1
Activity (Mus musculus [3]): Active | Activity (Rattus norvegicus [4]): Active | Activity (Mus musculus [5]): 29.3% | inhibition at 10 µM (RAW264.7 [1]): 84% | IC50 (RAW264.7 [6]): > 80 µM | Activity (Mus musculus [7]): Active | Activity (Mus musculus [8]): 2.13% | inhibition (RAW264.7 [9]): Dose-dependent effect | Activity (Mus musculus [10]): Active | Activity (Mus musculus [11]): Active | Activity (Mus musculus [12]): Active | Activity (Rattus norvegicus [13]): Active | Activity (Mus musculus [14]): Active | Activity (Mus musculus [15]): 39.1% | Activity (Mus musculus [17]): 27.4% | Activity (Rattus norvegicus [18]): Active | Activity (Mus musculus [19]): 28.7% | Activity (Mus musculus [20]): 0.527% | Activity (Mus musculus [21]): Active

Structure (SMILES): COc1cc(O)c(C(=O)/C(F)=C/c2ccc(C)cc2)c(OC)c1
inhibition at 10 µM (RAW264.7 [1]): 50.8%

IC50 (RAW264.7 [2]): 2.88 µM
Structure (SMILES): COc1cccc(C(=O)/C=C/c2cc(OC)c(OC)c(OC)c2)c1

IC50 (RAW264.7 [2]): 2.4 µM
Structure (SMILES): CC1(C)C=Cc2cc(C(=O)/C=C/c3ccc(O)cc3)c(O)cc2O1 [4-HYDROXYISOLONCHOCARPIN]

IC50 (RAW264.7 [2]): 0.7 µM
Structure (SMILES): COc1ccc(OC)c(C(=O)/C=C/c2ccc(N(C)C)cc2)c1

Structure (SMILES): COc1cc(O)c(C(=O)/C(F)=C/c2ccc(O)cc2)c(OC)c1
inhibition at 10 µM (RAW264.7 [1]): 70%

IC50 (RAW264.7 [2]): 11.3 µM
Structure (SMILES): CC(C)=CCc1cc(C(=O)/C=C/c2ccc(O)c(O)c2)c(O)cc1O [BROUSSOCHALCONE A]

Structure (SMILES): COc1cc(O)c(C(=O)/C=C/c2ccc(OCCCN3CCN(C)CC3)c(OC)c2)c(OC)c1
inhibition at 10 µM (RAW264.7 [1]): 70.4%

IC50 (RAW264.7 [2]): 4.19 µM
Structure (SMILES): COc1cc(C(=O)/C=C/c2cc(OC)c(OC)c(OC)c2)ccc1O

Structure (SMILES): COc1cc(O)c(C(=O)/C=C/c2ccc(OCCCO)cc2)c(OC)c1
inhibition at 10 µM (RAW264.7 [1]): 78.2%

IC50 (RAW264.7 [2]): 7.8 µM
Structure (SMILES): COc1cccc(O)c1C(=O)/C=C/c1cccc(Br)c1

IC50 (RAW264.7 [2]): 7.1 µM
Structure (SMILES): COc1ccccc1C(=O)/C=C/c1ccc(Cl)c(Cl)c1

Structure (SMILES): COc1cccc(/C=C(\C)C(=O)c2c(O)cc(OC)cc2OC)c1
inhibition at 10 µM (RAW264.7 [1]): 68.3%

Structure (SMILES): COc1cc(O)c(C(=O)/C=C/c2ccc(OCCO)cc2)c(OC)c1
inhibition at 10 µM (RAW264.7 [1]): 73.6%

Structure (SMILES): COc1ccc(/C=C(\F)C(=O)c2c(O)cc(OC)cc2OC)cc1
inhibition at 10 µM (RAW264.7 [1]): 50.3%

IC50 (RAW264.7 [16]): 2400 nM
Structure (SMILES): COc1cccc(/C=C/C(=O)c2c(O)cc(OC)cc2OC)c1
inhibition at 10 µM (RAW264.7 [1]): 86.9% | IC50 (RAW264.7 [6]): 34 µM

Structure (SMILES): COc1cccc(C2CC(=O)c3c(OC)cc(OC)cc3O2)c1 (stereo unspecified)
inhibition at 10 µM (RAW264.7 [1]): 57.3%

Structure (SMILES): COc1cc(O)c(C(=O)/C=C/c2ccc(Br)cc2)c(OC)c1
inhibition at 10 µM (RAW264.7 [1]): 70.2%

Structure (SMILES): COc1cc(O)c(C(=O)/C=C/c2cc(OC)c(OC)c(OC)c2)c(OC)c1
inhibition at 10 µM (RAW264.7 [1]): 77.4%

Structure (SMILES): COc1cc(O)c(C(=O)/C=C/c2ccc(OCCCN3CCCCC3)c(OC)c2)c(OC)c1
inhibition at 10 µM (RAW264.7 [1]): 74.8%

Structure (SMILES): COc1cc(O)c(C(=O)/C=C/c2cccnc2)c(OC)c1
inhibition at 10 µM (RAW264.7 [1]): 78%

Structure (SMILES): COc1cc(O)c(C(=O)/C(C)=C/c2ccc(C)cc2)c(OC)c1
inhibition at 10 µM (RAW264.7 [1]): 56.8%

Structure (SMILES): COc1cc(O)c(C(=O)/C=C/c2ccc3c(c2)OCO3)c(OC)c1
inhibition at 10 µM (RAW264.7 [1]): 70%

Structure (SMILES): COc1ccc(OC)c(/C=C(\F)C(=O)c2c(O)cc(OC)cc2OC)c1
inhibition at 10 µM (RAW264.7 [1]): 42.6%

IC50 (RAW264.7 [16]): 2700 nM
Structure (SMILES): CCOc1cc(OC)cc(OC)c1C(=O)/C=C/c1cccc(OC)c1
inhibition at 10 µM (RAW264.7 [1]): 85.6% | IC50 (RAW264.7 [6]): 34 µM
